According to patent US20110311457A1, “METHODS FOR IMAGING VASCULAR INFLAMMATION USING IMPROVED NANOPARTICLE CONTRAST AGENTS” (NANOSCAN IMAGING, LLC, priority 2007, published 2011):

Experiments:
rabbit VX2-tumor = assay: CT tumor perfusion imaging in a tumor bearing rabbit; assay type: in vivo; conditions: for HU value, ROI 1 Tumor vessel / HU value, ROI 2 Vessel / HU value, ROI 3 Tumor vital tissue / HU value, ROI 4 Tumor necrotic tissue / HU value, ROI 5 Whole tumor: 300 mgI/kg b.w.
Excerpt: The goal of the study was to explore the potential of different contrast media to visualize tumor perfusion.

[1] = Particle size during milling, XDC; assay type: physicochemical
Excerpt: In one embodiment, XDC (X-ray disc centrifuge sedimentometry) is used to measure particle size distribution. This is one of the most precise methods available for inorganic materials. The technique is based on the fact that particles of a different size (and of the same density) will take different times to travel between two points under the same force (e.g., gravity, centrifugal force): a larger particle will travel faster than a small particle. The derivation of the Stokes' equation for centrifugal sedimentation has been described many times in the literature (Thomas, J. C., and Fairhurst, D. (1991) Surface Phenomena and Fine Particles in Water-based Coatings and Paints. Sharma, M. K., and Micale, F. J. (eds), Plenum Press, New York). The relationship between size and the time taken is a square function. Thus, if a particle of (for example) one micron, takes one second to traverse a given distance, a 0.1 micron particle will take 100 seconds. With a distribution a particle sizes, the particles will effectively fractionate as they move under the proscribed (centrifugal) force. Because time can be measured extremely precisely, the sizes detected can be measured with great precision. The method used to determine the “amount” of material at any given size is X-ray absorbtion. For many inorganic materials, X-rays are absorbed in proportion to mass. The particle size density is therefore “mass-weighted.” Since, for a given particle density, mass is proportional to volume, a “volume-weighted” value (Dv) can be calculated for particle size density. Making the assumption that the particles are spherical, Dv can be transformed into either a surface-weighted value (Ds) or a number-weighted value (Dn). The latter number can be compared with the size determined from electron microscopy. For particle sizes in the colloidal domain (less than 1 micron), the assumption of sphericity is quite reasonable and becomes more so as the particle size gets smaller into the deep sub-micron (<100 nm) and the true nanometer (ca 10 nm) range. The size range that can be accommodated in XDC measurements is dictated only by the width of the particle size density, e.g., how long the measurement will take. The XDC method can be quite time consuming for a very broad particle size density.
(§1) N1177 was milled to the desired particle size distribution. The particle size during milling was monitored in a preliminary study by periodically measuring particle size using XDC and PCS instruments.

[2] = Particle size during milling, PCS; assay type: physicochemical
Excerpt: This is the most widely used technique for particle size density determination and there are two main variations: photon correlation spectroscopy (PCS), and Fraunhofer Diffraction (FD). The choice is dictated by the particle size range under investigation. PCS works for sizes from a few nanometers up to about 1 micron (1000 nm), and FD works from about 1 micron up to millimeters. Both methods are called “ensemble averaging methods.” This means that the two relevant pieces of information needed to describe the particle size density (the actual size and the amount of material at that size) need to be deconvoluted from a single measurement of the amount of light scattered. This involves application of extremely complex theory and equally complex deconvolution algorithms (Kerker, M. (1969) The Scattering of Light and other Electromagnetic Radiation. Academic Press, New York). Thus, both measurement variations are intrinsically low resolution: typically the best that can be achieved is to differentiate between two class sizes (Weiner, B. B. (1984) Modern Methods of Particle Sizing. Barth, H. (ed). Wiley-Interscience). A technical issue arises when the particle size density extends across the one micron point, because then the two different algorithms/theories need to be applied and these cannot be combined together. Attempts to do so result in artifacts in the particle size density such that commercial instruments smooth the data resulting in even less resolution. Being based on light scattering, the fundamental value obtained is an “intensity-weighted” number (Di). Transforming the Di value into a Dv value presents several challenges. The first is that, in addition to the assumption of sphereicity, both PCS and FD weight the intensity differently, and the second is that the transform necessitates application of scattering and efficiency corrections (Weiner, B. B., Fairhurst, D., and Tscharnuter, W. W. (1991) Particle Size Distribution II—Assessment and Characterization. Provder, T. (ed). ACS Symposium Series No. 472. American Chemical Society). Although such corrections can be calculated from Mie theory (Kerker, M. (1969) The Scattering of Light and other Electromagnetic Radiation. Academic Press, New York), they are particle size dependent and require knowledge of the optical properties (complex refractive index) of both the particles and the surrounding medium. The result is that the Dv value (and if further transforms are made to Ds and Dn) can be widely inaccurate. However, for quality control purposes the technique is extremely fast and, for measurements on the same material, extremely reproducible. Laser light scattering may also be referred to as Dynamic Light Scattering (DLS) and generally refers to the PCS technique. Asymmetrical flow field-flow-fractionation (AF4) is a newer method based on light scattering which may be employed. The benefit A4F is that the method is able to separate nanoparticle mixtures prior to DLS analysis.
as §1

SPF-mice = conditions: established marketed contrast media, comparison value; cited from earlier work
erythrocytes = assay: Influence on erythrocyte morphology (damage index) in vitro; assay type: cell-based, human; conditions: final conc. 52.86 mg I/mL, value in % of maximal damage index
Method: Effects on red blood cells can be monitored in vitro, by exposing human blood to contrast agents, monitoring the appearance of deformed erythrocytes and deriving a “damage index” (D.I.) immediately after exposure, 1 and 2 hours after incubation. Parameters: Morphological changes of blood erxthrocytes;

CCOC(=O)CCCCCOC(=O)c1c(I)c(NC(C)=O)c(I)c(NC(C)=O)c1I [Compound N1177, 6-ethoxy-6-oxohexy-3,5-bis(acetylamino)-2,4,6-triiodobenzoate]
HU value, ROI 1 Tumor vessel (rabbit VX2-tumor): 81 HU | HU value, ROI 2 Vessel (rabbit VX2-tumor): 307 HU | HU value, ROI 3 Tumor vital tissue (rabbit VX2-tumor): 5 HU | HU value, ROI 4 Tumor necrotic tissue (rabbit VX2-tumor): 9 HU | HU value, ROI 5 Whole tumor (rabbit VX2-tumor): 13 HU | Mean Size DN (XDC) ([1]; Milled Day 3): 84 nm | Mean Size DV (XDC) ([1]; Milled Day 3): 148 nm | Mean Size DN (XDC) ([1]; Milled Day 5): 79 nm | Mean Size DV (XDC) ([1]; Milled Day 5): 143 nm | Mean Size DN (XDC) ([1]; Milled Day 7): 77 nm | Mean Size DV (XDC) ([1]; Milled Day 7): 138 nm | Mean Size DN (XDC) ([1]; T = 0 (unmilled)): 173 nm | Mean Size DV (XDC) ([1]; T = 0 (unmilled)): 424 nm | Mean Effective Diameter (PCS) ([2]; Milled Day 3): 158 nm | Mean Effective Diameter (PCS) ([2]; Milled Day 4): 151 nm | Mean Effective Diameter (PCS) ([2]; Milled Day 5): 149 nm | Mean Effective Diameter (PCS) ([2]; Milled Day 6): 148 nm | Mean Effective Diameter (PCS) ([2]; Milled Day 7): 147 nm | Mean Effective Diameter (PCS) ([2]; T = 0 (unmilled)): 236 nm

COCC(=O)Nc1c(I)c(C(=O)NCC(O)CO)c(I)c(C(=O)N(C)CC(O)CO)c1I (centres unmarked) [Ultravist]
HU value, ROI 1 Tumor vessel (rabbit VX2-tumor): 95 HU | HU value, ROI 2 Vessel (rabbit VX2-tumor): 294 HU | HU value, ROI 3 Tumor vital tissue (rabbit VX2-tumor): 30 HU | HU value, ROI 4 Tumor necrotic tissue (rabbit VX2-tumor): 4 HU | HU value, ROI 5 Whole tumor (rabbit VX2-tumor): 37 HU | tumor perfusion (intra-/extravasal) (rabbit VX2-tumor; dynamic CT 0-80 s): intra- and extravasal perfusion | LD50 (SPF-mice): > 12 g Iodine/kg bw | Damage index after incubation (erythrocytes; 0 h): 31.2% | Damage index after incubation (erythrocytes; 1 h): 12.2% | Damage index after incubation (erythrocytes; 2 h): 24.4%
